Assay results reported in ChEMBL document CHEMBL1149204, “A new lead compound for abscisic acid biosynthesis inhibitors targeting 9-cis-epoxycarotenoid dioxygenase” (Bioorg Med Chem Lett, 2004).
pIC50: −log10 of the molar value.

Tests used:
[1] = Inhibitory activity was determined against 9-cis-epoxycarotenoid dioxygenase (NCED) expressed in Escherichia coli in presence of 9''-cis-neo-xanthin
[2] = test system: Spinacia oleracea; assay: Effect of compound at 100 uM concentration on ABA accumulation in spinachleaf slices determined as fresh weight of leaves (Experiment 1); type: functional
[3] = test system: Spinacia oleracea; assay: Effect of compound at 100 uM concentration on ABA accumulation in spinachleaf slices determined as fresh weight of leaves (Experiment 2); type: functional
[4] = test system: Spinacia oleracea; assay: Effect of compound at 100 uM concentration on ABA accumulation in spinachleaf slices determined as fresh weight of leaves (Experiment 3); type: functional
[5] = test system: Spinacia oleracea; assay: Effect of compound at 0.4 M concentration on ABA accumulation in spinachleaf slices determined as fresh weight of leaves (Experiment 1); type: functional
[6] = test system: Spinacia oleracea; assay: Effect of compound at 0.4 M concentration on ABA accumulation in spinachleaf slices determined as fresh weight of leaves (Experiment 2); type: functional
[7] = test system: Spinacia oleracea; assay: Effect of compound at 0.4 M concentration on ABA accumulation in spinachleaf slices determined as fresh weight of leaves (Experiment 3); type: functional

Row | SMILES | pIC50 [1] | ABA content per fresh weight [2] | ABA content per fresh weight [3] | ABA content per fresh weight [4] | Fresh weight [5] | Fresh weight [6] | Fresh weight [7]
1 | Oc1ccc(CCNCc2ccccc2O)cc1 | 3.80 |  |  |  |  |  | 
2 | COC(=O)CN(C/C=C/c1ccc(OC)c(OC)c1)Cc1ccc(F)cc1 | 4.26 | 14 ng/g | 82.8 ng/g | 65.6 ng/g |  |  | 
3 | COc1ccc(CCN(C)Cc2ccc(OC)c(OC)c2)cc1 | 4.06 |  |  |  |  |  | 
4 | COc1ccc(NC/C=C/c2ccc(OC)c(OC)c2)cc1 | 3.84 | 26.1 ng/g | 168.7 ng/g | 137.1 ng/g |  |  | 
5 | OC[C@@H](O)[C@@H](O)[C@H](O)[C@H](O)CO [MANNITOL] |  |  |  |  | 22.7 ng/g | 178.4 ng/g | 134.9 ng/g
6 | CC(Cc1ccc(O)c(O)c1)C(C)Cc1ccc(O)c(O)c1 (configuration not stated) [NORDIHYDROGUAIARETIC ACID] | 3.74 | 20.5 ng/g | 165.3 ng/g | 128.5 ng/g |  |  | 
